Read-outs that look alike come from different tables or passages of the source.
Legend:
[1] = target: JAK2 (Homo sapiens (Human), UniProt O60674); assay: Jak Biochemical HTRF Assay, JAK2
Text: (§1) Jak Biochemical HTRF Assay Protocol
(§2) Subsequent reagent additions employed an Agilent Bravo.

[2] = target: JAK1 (Homo sapiens (Human), UniProt P23458); assay: Jak Biochemical HTRF Assay, JAK1; conditions: read-out: JAK1 IC50
Text: as §1, §2

[3] = HTRF biochemical assay, GST-tagged catalytic domain, top concentration tested […]

JAK2, sequence (O60674 849-1124): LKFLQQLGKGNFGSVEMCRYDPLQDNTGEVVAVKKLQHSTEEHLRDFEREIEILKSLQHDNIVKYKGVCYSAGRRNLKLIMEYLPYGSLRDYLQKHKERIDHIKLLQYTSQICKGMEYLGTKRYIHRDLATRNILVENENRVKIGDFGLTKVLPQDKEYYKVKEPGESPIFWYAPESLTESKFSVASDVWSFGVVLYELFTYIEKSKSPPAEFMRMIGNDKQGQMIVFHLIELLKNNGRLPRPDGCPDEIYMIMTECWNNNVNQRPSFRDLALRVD
JAK1, sequence (P23458 875-1153): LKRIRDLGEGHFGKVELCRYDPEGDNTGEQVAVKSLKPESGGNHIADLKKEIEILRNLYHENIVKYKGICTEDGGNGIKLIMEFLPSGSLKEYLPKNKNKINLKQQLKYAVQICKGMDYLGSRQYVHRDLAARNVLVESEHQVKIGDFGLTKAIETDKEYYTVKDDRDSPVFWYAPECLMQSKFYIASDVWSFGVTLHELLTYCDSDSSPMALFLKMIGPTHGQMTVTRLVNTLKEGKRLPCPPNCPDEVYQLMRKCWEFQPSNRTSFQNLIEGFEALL

Compound	IC50 [1, 3]	IC50 [2, 3]	IC50 [1]	IC50 [2]
N#CCC1(n2cc(C(N)=O)c(Nc3ccnc(F)c3)n2)CCC(NCc2cccc(C#N)c2)CC1 (stereo not drawn) [Example 41-14, Cis or trans 1-{4-[(3-cyanobenzyl)amino]-1-(cyanomethyl)cyclohexyl}-3-[(2-fluoropyridin-4-yl)amino]-1H-pyrazole-4-carboxamide]	1420 nM	45 nM	–	–
N#CCC1(n2cc(C(N)=O)c(Nc3ccnc(F)c3)n2)CCC(NCc2ccc(Cl)cc2)CC1 (stereo not drawn) [Example 41-15, Cis or trans 1-{4-[(4-chlorobenzyl)amino]-1-(cyanomethyl)cyclohexyl}-3-[(2-fluoropyridin-4-yl)amino]-1H-pyrazole-4-carboxamide]	2 nM	0.1 nM	–	–
N#CCC1(n2cc(C(N)=O)c(Nc3ccnc(F)c3)n2)CCC(NCc2ccccc2Cl)CC1 (stereo not drawn) [Example 41-16, Cis or trans 1-{4-[(2-chlorobenzyl)amino]-1-(cyanomethyl)cyclohexyl}-3-[(2-fluoropyridin-4-yl)amino]-1H-pyrazole-4-carboxamide]	912 nM	24 nM	–	–
N#CCC1(n2cc(C(N)=O)c(Nc3ccnc(F)c3)n2)CCC(NCc2ccccn2)CC1 (stereo not drawn) [Example 41-17, Cis or trans 1-{1-(cyanomethyl)-4-[(pyridin-2-ylmethyl)amino]cyclohexyl}-3-[(2-fluoropyridin-4-yl)amino]-1H-pyrazole-4-carboxamide]	1390 nM	46 nM	–	–
N#CCC1(n2cc(C(N)=O)c(Nc3ccnc(F)c3)n2)CCC(NCc2ccccc2)CC1 (stereo not drawn) [Example 41-18, Cis or trans 1-[4-(benzylamino)-1-(cyanomethyl)cyclohexyl]-3-[(2-fluoropyridin-4-yl)amino]-1H-pyrazole-4-carboxamide]	10 nM	0.1 nM	–	–
N#CCC1(n2cc(C(N)=O)c(Nc3ccnc(F)c3)n2)CCC(NCc2cccc(F)c2)CC1 (stereo not drawn) [Example 41-19, Cis or trans 1-{1-(cyanomethyl)-4-[(3-fluorobenzyl)amino]cyclohexyl}-3-[(2-fluoropyridin-4-yl)amino]-1H-pyrazole-4-carboxamide]	9 nM	0.3 nM	–	–
N#CCC1(n2cc(C(N)=O)c(Nc3ccnc(F)c3)n2)CCC(NCc2cccc(Cl)c2)CC1 (stereo not drawn) [Example 41-20, Cis or trans 1-{4-[(3-chlorobenzyl)amino]-1-(cyanomethyl)cyclohexyl}-3-[(2-fluoropyridin-4-yl)amino]-1H-pyrazole-4-carboxamide]	17 nM	0.6 nM	–	–
N#CCC1(n2cc(C(N)=O)c(Nc3ccnc(F)c3)n2)CCC(NCc2ccccc2F)CC1 (stereo not drawn) [Example 41-21, Cis or trans 1-{1-(cyanomethyl)-4-[(2-fluorobenzyl)amino]cyclohexyl}-3-[(2-fluoropyridin-4-yl)amino]-1H-pyrazole-4-carboxamide]	308 nM	11 nM	–	–
N#CCC1(n2cc(C(N)=O)c(Nc3ccnc(F)c3)n2)CCC(NCc2cccnc2)CC1 (stereo not drawn) [Example 41-22, Cis or trans 1-{1-(cyanomethyl)-4-[(pyridin-3-ylmethyl)amino]cyclohexyl}-3-[(2-fluoropyridin-4-yl)amino]-1H-pyrazole-4-carboxamide]	1050 nM	28 nM	–	–
N#CCC1(n2cc(C(N)=O)c(Nc3ccnc(F)c3)n2)CCC(NCc2cccc(Cl)c2)CC1 (stereo not drawn) [Example 41-23, Cis or trans 1-{4-[(3-chlorobenzyl)amino]-1-(cyanomethyl)cyclohexyl}-3-[(2-fluoropyridin-4-yl)amino]-1H-pyrazole-4-carboxamide]	1430 nM	46 nM	–	–
N#CCC1(n2cc(C(N)=O)c(Nc3ccnc(F)c3)n2)CCC(NCc2cccc(F)c2)CC1 (stereo not drawn) [Example 41-24, Cis or trans 1-{1-(cyanomethyl)-4-[(3-fluorobenzyl)amino]cyclohexyl}-3-[(2-fluoropyridin-4-yl)amino]-1H-pyrazole-4-carboxamide]	1030 nM	26 nM	–	–
N#CCC1(n2cc(C(N)=O)c(Nc3ccnc(F)c3)n2)CCC(NCc2ccc(F)cc2)CC1 (stereo not drawn) [Example 41-25, Cis or trans 1-{1-(cyanomethyl)-4-[(4-fluorobenzyl)amino]cyclohexyl}-3-[(2-fluoropyridin-4-yl)amino]-1H-pyrazole-4-carboxamide]	1080 nM	27 nM	–	–
N#CCC1(n2cc(C(N)=O)c(Nc3ccnc(F)c3)n2)CCC(NCc2ccc(O)cc2)CC1 (stereo not drawn) [Example 41-26, Cis or trans 1-{1-(cyanomethyl)-4-[(4-hydroxybenzyl)amino]cyclohexyl}-3-[(2-fluoropyridin-4-yl)amino]-1H-pyrazole-4-carboxamide]	759 nM	16 nM	–	–
N#CCC1(n2cc(C(N)=O)c(Nc3ccnc(F)c3)n2)CCC(NCc2ccccc2C#N)CC1 (stereo not drawn) [Example 41-27, Cis or trans 1-{4-[(2-cyanobenzyl)amino]-1-(cyanomethyl)cyclohexyl}-3-[(2-fluoropyridin-4-yl)amino]-1H-pyrazole-4-carboxamide]	> 1500 nM	307 nM	–	–
N#CCC1(n2cc(C(N)=O)c(Nc3ccnc(F)c3)n2)CCC(NCc2ccccc2)CC1 (stereo not drawn) [Example 41-28, Cis or trans 1-[4-(benzylamino)-1-(cyanomethyl)cyclohexyl]-3-[(2-fluoropyridin-4-yl)amino]-1H-pyrazole-4-carboxamide]	735 nM	20 nM	–	–
N#CC[C@]1(n2cc(C(N)=O)c(Nc3ccccc3)n2)CC[C@H](C(=O)NCC(F)(F)F)CC1 [Example 45-2, cis or trans 1-{1-(cyanomethyl)-4-[(2,2,2-trifluoroethyl)carbamoyl]cyclohexyl}-3-(phenylamino)-1H-pyrazole-4-carboxamide]	–	–	1480 nM	378 nM
N#CC[C@@]1(n2cc(C(N)=O)c(Nc3ccnc(F)c3)n2)CCN(C(=O)OCC(F)F)C[C@@H]1F [Example 46]	0.1 nM	0.03 nM	–	–

From patent publication US9328099B2, “Cyanomethylpyrazole carboxamides as janus kinase inhibitors” (Merck Sharp & Dohme Corp., priority 2011, dated 2016)
